T/C data for 20 compounds are collected here from PubChem BioAssay AID298 (DTP/NCI, 2004).

In this assay the test system is MX-1 breast xenograft, intrarenal, nude mice, tumor weight. The assay can be described thus: NCI In Vivo Anticancer Drug Screen. Data for tumor model Human Mammary Carcinoma MX-1 Xenograft (intrarenal inoculation) in NU/NU BALB/C (nude) mice. The settings on record: endpoint: mean tumor weight change, higher = larger tumour. The gist of the method: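 Transplantable tumors established in mice; animals dosed with compound or vehicle; survival or tumor size then recorded. Result reported as treated (T) divided by vehicle control (C).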

Where [1] appears, read: dose: 150.0 mg/kg/injection, schedule: Q04DX003 (ip), vehicle: saline with Tween-80.
The mark [2] stands for this setting: dose: 300.0 mg/kg/injection, schedule: Q04DX003 (ip), vehicle: saline with Tween-80.
The mark [3] stands for this setting: dose: 150.0 mg/kg/injection, schedule: Q04DX003 (ip), vehicle: Klucel (hydroxypropylcellulose) (HPC).

Several values for one entry are separate records, joined by “and”; a condition that tells them apart may be missing. Equal values may be shown once. Results filed as inconclusive are left out.

With `CCCC(=O)OCc1cc(=O)n(C)c2c3c4c(cc12)c(C)cc(=O)n4CO3`, the T/C (dose: 50.0 mg/kg/injection, schedule: Q01DX010 (sc), vehicle: Klucel (hydroxypropylcellulose) (HPC)) was 79 % of control; the T/C (dose: 100.0 mg/kg/injection, schedule: Q01DX010 (sc), vehicle: Klucel (hydroxypropylcellulose) (HPC)) was 75 % of control; the T/C (dose: 200.0 mg/kg/injection, schedule: Q01DX010 (sc), vehicle: Klucel (hydroxypropylcellulose) (HPC)) was 64 % of control; the T/C (dose: 400.0 mg/kg/injection, schedule: Q01DX010 (sc), vehicle: Klucel (hydroxypropylcellulose) (HPC)) is 66 % of control; the T/C (dose: 800.0 mg/kg/injection, schedule: Q01DX010 (sc), vehicle: Klucel (hydroxypropylcellulose) (HPC)) was 61 % of control.

Regarding `CN1COc2c(n(C)c(=O)[nH]c2=O)C1`, the T/C was 85 % of control (dose: 100.0 mg/kg/injection, schedule: Q04DX003 (ip), vehicle: suspension in saline); 92 % of control (dose: 200.0 mg/kg/injection, schedule: Q04DX003 (ip), vehicle: saline); 65 % of control (dose: 200.0 mg/kg/injection, schedule: Q04DX003 (ip), vehicle: suspension in saline); 103 % of control (dose: 400.0 mg/kg/injection, schedule: Q04DX003 (ip), vehicle: saline); 68 % of control (dose: 400.0 mg/kg/injection, schedule: Q04DX003 (ip), vehicle: suspension in saline); 102 % of control (dose: 800.0 mg/kg/injection, schedule: Q04DX003 (ip), vehicle: saline). Further, the T/C (dose: 800.0 mg/kg/injection, schedule: Q04DX003 (ip), vehicle: suspension in saline) was 72 % of control.

On to `C=C1C(O)C2OC3(CCC(/C=C/C(C)C4CC5(C)SC5C5(OC(CC(C)(O)C(=O)O)CCC5O)O4)O3)CCC2OC1C(O)CC(C)C1OC2(CCCCO2)CCC1C` (stereo not drawn), for which the T/C is 92 % of control (dose: 5.0 micrograms/kg/injection, schedule: Q04DX003 (ip), vehicle: saline + alcohol); 84 % of control (dose: 10.0 micrograms/kg/injection, schedule: Q04DX003 (ip), vehicle: saline + alcohol); 56 % of control and 76 % of control (dose: 40.0 micrograms/kg/injection, schedule: Q04DX003 (ip), vehicle: saline + alcohol).

As to `O=[N+]([O-])c1nccn1CC(O)CO` (stereo not drawn), the T/C reads like this: (dose: 300.0 mg/kg/injection, schedule: Q04DX004 (sc), vehicle: saline) 96 % of control; (dose: 600.0 mg/kg/injection, schedule: Q04DX004 (sc), vehicle: saline) 91 % of control; (dose: 2400.0 mg/kg/injection, schedule: Q04DX004 (sc), vehicle: saline) 93 % of control.

With `O=C/C(Cl)=C(/Cl)C(=O)O`, the T/C by setting is: (dose: 10.0 mg/kg/injection, schedule: Q01DX010 (sc), vehicle: saline with Tween-80) 87 % of control; (dose: 20.0 mg/kg/injection, schedule: Q01DX010 (sc), vehicle: saline with Tween-80) 36 % of control; (dose: 40.0 mg/kg/injection, schedule: Q01DX010 (sc), vehicle: saline with Tween-80) 41 % of control.

Consider `CN=C(N)N/N=C(\C)c1ccc2sc3ccc(/C(C)=N/NC(N)=NC)cc3c2c1`, for which the T/C is 90 % of control under setting [1] and 59 % of control under setting [2].

For the compound `Cc1cc(SCC(=O)c2ccc(Br)cc2)cc(C)[o+]1`, the T/C runs as follows: (dose: 50.0 mg/kg/injection, schedule: Q01DX010 (sc), vehicle: saline) 91 % of control; (dose: 100.0 mg/kg/injection, schedule: Q01DX010 (sc), vehicle: saline) 124 % of control; (dose: 200.0 mg/kg/injection, schedule: Q01DX010 (sc), vehicle: saline) 71 % of control; (dose: 400.0 mg/kg/injection, schedule: Q01DX010 (sc), vehicle: saline) 102 % of control.

Take `O=c1[nH]c(=O)n(C2CC(O)C(CO)O2)cc1F` (stereo not drawn): the T/C reads like this: (dose: 25.0 mg/kg/injection, schedule: Q01DX010 (sc), vehicle: water) 47 % of control and 68 % of control; (dose: 100.0 mg/kg/injection, schedule: Q01DX010 (sc), vehicle: water) 15 % of control and 18 % of control.

Turning to `OC1(CSc2ccccc2)CCCCC1`, the T/C was 98 % of control (dose: 300.0 mg/kg/injection, schedule: Q04DX003 (sc), vehicle: saline with Tween-80) and 112 % of control (dose: 600.0 mg/kg/injection, schedule: Q04DX003 (sc), vehicle: saline with Tween-80).

As to `O=C1[C@@H]2C3C=CC([C@H]4C(=O)N(CO)C(=O)[C@@H]34)[C@@H]2C(=O)N1CO`, the T/C reads like this: (dose: 100.0 mg/kg/injection, schedule: Q04DX003 (ip), vehicle: Klucel (hydroxypropylcellulose) (HPC)) 78 % of control; (dose: 200.0 mg/kg/injection, schedule: Q04DX003 (ip), vehicle: Klucel (hydroxypropylcellulose) (HPC)) 52 % of control.

For `COc1cc2c(c3c1c(=O)c1ccccc1n3C)C=CC(C)(C)O2`, the T/C is, setting by setting: (dose: 37.5 mg/kg/injection, schedule: Q04DX003 (ip), vehicle: Klucel (hydroxypropylcellulose) (HPC)) 54 % of control; (dose: 75.0 mg/kg/injection, schedule: Q04DX003 (ip), vehicle: Klucel (hydroxypropylcellulose) (HPC)) 40 % of control; under setting [3], 21 % of control.

Consider `ClC1(Cl)Cc2ccccc21`, for which the T/C runs as follows: under setting [1], 109 % of control; under setting [2], 109 % of control; (dose: 600.0 mg/kg/injection, schedule: Q04DX003 (ip), vehicle: saline with Tween-80) 45 % of control.

Consider `Cc1ccc2c(c1)C1(C)OC(C=CC1=O)O2` (stereo not drawn), for which the T/C under setting [3] was 94 % of control.

As for `C[C@@]1(CO)[C@H](O)CC[C@@]2(C)[C@H]1CC[C@H]1C[C@@H]3C[C@@]12CC[C@@]3(O)COC(=O)CN`, the T/C runs as follows: (dose: 50.0 mg/kg/injection, schedule: Q04DX003 (ip), vehicle: saline + alcohol) 107 % of control; (dose: 100.0 mg/kg/injection, schedule: Q04DX003 (ip), vehicle: saline + alcohol) 95 % of control.

Take `NNC(=S)N/N=C/c1ccccn1`: the T/C runs as follows: (dose: 15.0 mg/kg/injection, schedule: Q04DX003 (sc), vehicle: saline with Tween-80) 116 % of control; (dose: 30.0 mg/kg/injection, schedule: Q04DX003 (sc), vehicle: saline with Tween-80) 96 % of control; (dose: 60.0 mg/kg/injection, schedule: Q04DX003 (sc), vehicle: saline with Tween-80) 123 % of control.

As for `C=C(C)C(=O)O[C@H]1CC2=C[C@@H](C[C@@]3(C)O[C@@H]3[C@H]3OC(=O)C(=C)[C@@H]31)OC2=O`, the T/C (dose: 37.5 mg/kg/injection, schedule: Q04DX003 (sc), vehicle: Klucel (hydroxypropylcellulose) (HPC)) was 96 % of control; the T/C (dose: 75.0 mg/kg/injection, schedule: Q04DX003 (sc), vehicle: Klucel (hydroxypropylcellulose) (HPC)) was 78 % of control; the T/C (dose: 150.0 mg/kg/injection, schedule: Q04DX003 (sc), vehicle: Klucel (hydroxypropylcellulose) (HPC)) was 104 % of control; the T/C (dose: 300.0 mg/kg/injection, schedule: Q04DX003 (sc), vehicle: Klucel (hydroxypropylcellulose) (HPC)) was 72 % of control.

As for `NC(=S=O)C(N)=S=O`, the T/C (dose: 125.0 mg/kg/injection, schedule: Q04DX003 (ip), vehicle: saline with Tween-80) was 42 % of control; the T/C (dose: 250.0 mg/kg/injection, schedule: Q04DX003 (ip), vehicle: saline with Tween-80) was 65 % of control; the T/C (dose: 500.0 mg/kg/injection, schedule: Q04DX003 (ip), vehicle: saline with Tween-80) is 60 % of control.

On to `C=CC(C)(C)n1cc(C2=C(O)C(=O)C(c3cn(C(C)(C)C=C)c4ccccc34)=C(O)C2=O)c2ccccc21`, for which the T/C is 80 % of control (dose: 50.0 mg/kg/injection, schedule: Q04DX003 (sc), vehicle: Klucel (hydroxypropylcellulose) (HPC)); 96 % of control (dose: 100.0 mg/kg/injection, schedule: Q04DX003 (sc), vehicle: Klucel (hydroxypropylcellulose) (HPC)); 76 % of control (dose: 200.0 mg/kg/injection, schedule: Q04DX003 (sc), vehicle: Klucel (hydroxypropylcellulose) (HPC)); 74 % of control (dose: 400.0 mg/kg/injection, schedule: Q04DX003 (sc), vehicle: Klucel (hydroxypropylcellulose) (HPC)).

Regarding `CC[C@@H](C)[C@H]([C@H](CC(=O)N1CCC[C@@H]1[C@@H](OC)[C@H](C)C(=O)N[C@H](Cc1ccccc1)c1nccs1)OC)N(C)C(=O)[C@H](NC(=O)[C@@H](C(C)C)N(C)C)C(C)C`, the T/C (dose: 13.0 micrograms/kg/injection, schedule: Q04DX003 (ip), vehicle: saline + alcohol) is 61 % of control; the T/C (dose: 26.0 micrograms/kg/injection, schedule: Q04DX003 (ip), vehicle: saline + alcohol) was 50 % of control; the T/C (dose: 52.0 micrograms/kg/injection, schedule: Q04DX003 (ip), vehicle: saline + alcohol) was 14 % of control.

With `NCCCN=c1ccc2c3c1c(O)c1c(O)ccc(=O)c1c3[nH]n2CCNCCO`, the T/C reads like this: (dose: 9.35 mg/kg/injection, schedule: Q04DX003 (ip), vehicle: water) 19 % of control; (dose: 9.38 mg/kg/injection, schedule: Q04DX003 (ip), vehicle: water) 11 % of control; (dose: 18.75 mg/kg/injection, schedule: Q04DX003 (ip), vehicle: water) -33 % of control and -19 % of control and -16 % of control; (dose: 37.5 mg/kg/injection, schedule: Q04DX003 (ip), vehicle: water) -87 % of control and -83 % of control and -100 % of control.
